According to patent US8541645B2, “Animal model for cigarette-smoke-induced atherosclerosis and related methods” (University of Calcutta, priority 2009, dated 2013):

Experiments:
[1] = system: CS-induced atherosclerosis in guinea pig aorta; experiment: Cigarette-smoke-induced atherosclerosis in guinea pig aorta (H&E and Oil red O staining of aortic sections); format: in vivo; settings: dietary supplementation of vitamin C 5 mg/day in addition to CS exposure; aortic sections stained with H&E or Oil red O (FIG. 3)
Description: Two to six, preferably three to four, month old male guinea pigs weighing between about 350 to about 450 grams (g) are used. All animals are maintained on a vitamin C-free diet for 7 days in order to minimize the in vivo levels of vitamin C in plasma and tissues. After 7 days of vitamin C deprivation, the guinea pigs are given a dietary supplementation of about 1 milligram (mg) of vitamin C per day (1 mg vitamin C/day) to prevent the onset of scurvy. (It is known that a dose of 0.8 mg vitamin C/day is sufficient to maintain guinea pigs without the development of scurvy.) Thereafter, the guinea pigs are subjected to cigarette smoke exposure (3 cigarettes per animal per day (3 cigarettes/animal/day) with 2 puffs per cigarette (2 puffs/cigarette)). Two puffs per cigarette indicate that the burning of a cigarette is divided into two halves. In each half, animals are exposed to cigarette smoke for a period of 1 minute (min.). There is an interval of 1 min. between these two halves. During this interval, animals are exposed to normal atmospheric air. Likewise, 3 puffs/cigarette would indicate that the burning of a cigarette is divided into three approximately equal parts with two intervals in between. […]

[2] = system: scurvy; settings: dietary; cited from earlier work

SMILES: O=C1O[C@H]([C@@H](O)CO)C(O)=C1O [vitamin C, L-ascorbic acid]
- effect on CS-induced atherogenic changes in guinea pig aorta [1]: prevents CS-induced atherogenic changes
- dose sufficient to maintain guinea pigs without the development of scurvy [2]: 0.8 mg vitamin C/day
